Experimental data published in PubChem BioAssay (NCI).
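Exposure lasted 48 hours, with cells grown in 96-well plates and compounds tested at five concentrations. TGI: total growth inhibition.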

Key:
Assay in all cases: NCI tumour cell line growth inhibition, 48 h
ACHN renal = test system: ACHN renal
A498 renal = test system: A498 renal
SF-539 CNS = test system: SF-539 CNS
NCI-H23 lung = test system: NCI-H23 lung
UACC-257 melanoma = test system: UACC-257 melanoma
T-47D breast = test system: T-47D breast
PC-3 prostate = test system: PC-3 prostate
SK-OV-3 ovarian = test system: SK-OV-3 ovarian
NCI/ADR-RES ovarian = test system: NCI/ADR-RES ovarian
EKVX NSCLC = test system: EKVX NSCLC
SN12C renal = test system: SN12C renal
HT29 colon = test system: HT29 colon
UACC-62 melanoma = test system: UACC-62 melanoma
HCT-116 colon = test system: HCT-116 colon
SK-MEL-5 melanoma = test system: SK-MEL-5 melanoma
786-0 renal = test system: 786-0 renal
RPMI-8226 leukemia = test system: RPMI-8226 leukemia
SW-620 colon = test system: SW-620 colon
HOP-62 NSCLC = test system: HOP-62 NSCLC
CAKI-1 renal = test system: CAKI-1 renal
MALME-3M melanoma = test system: MALME-3M melanoma
KM12 colon = test system: KM12 colon
OVCAR-4 ovarian = test system: OVCAR-4 ovarian
TK-10 renal = test system: TK-10 renal
SF-268 CNS = test system: SF-268 CNS
SK-MEL-28 melanoma = test system: SK-MEL-28 melanoma
SNB-75 CNS = test system: SNB-75 CNS
COLO 205 colon = test system: COLO 205 colon
RXF 393 renal = test system: RXF 393 renal
UO-31 renal = test system: UO-31 renal
A549 NSCLC = test system: A549 NSCLC
SK-MEL-2 melanoma = test system: SK-MEL-2 melanoma
OVCAR-5 ovarian = test system: OVCAR-5 ovarian
CCRF-CEM leukemia = test system: CCRF-CEM leukemia
MDA-MB-435 = test system: MDA-MB-435
MDA-N = test system: MDA-N
HS 578T breast = test system: HS 578T breast
HOP-92 NSCLC = test system: HOP-92 NSCLC
U251 CNS = test system: U251 CNS
HL-60(TB) leukemia = test system: HL-60(TB) leukemia
HCC-2998 colon = test system: HCC-2998 colon
MDA-MB-231 breast = test system: MDA-MB-231 breast
IGROV1 ovarian = test system: IGROV1 ovarian
SR leukemia = test system: SR leukemia
DU-145 prostate = test system: DU-145 prostate
NCI-H522 lung = test system: NCI-H522 lung
MOLT-4 leukemia = test system: MOLT-4 leukemia
NCI-H460 lung = test system: NCI-H460 lung
MCF7 breast = test system: MCF7 breast
OVCAR-8 ovarian = test system: OVCAR-8 ovarian
M14 melanoma = test system: M14 melanoma
NCI-H226 lung = test system: NCI-H226 lung
HCT-15 colon = test system: HCT-15 colon
SNB-19 CNS = test system: SNB-19 CNS
LOX IMVI melanoma = test system: LOX IMVI melanoma
OVCAR-3 ovarian = test system: OVCAR-3 ovarian
SF-295 CNS = test system: SF-295 CNS
K-562 leukemia = test system: K-562 leukemia
BT-549 breast = test system: BT-549 breast

Measured: TGI

NC(N)=N/N=C/c1c(-c2ccc([N+](=O)[O-])cc2)nc2sc(Cl)cn12
4 µM: RPMI-8226 leukemia
3.2 µM: SK-MEL-2 melanoma
1.14 µM: CCRF-CEM leukemia
2.77 µM: A498 renal
1.53 µM: EKVX NSCLC
4.05 µM: HOP-92 NSCLC
3.01 µM: UACC-62 melanoma
2.06 µM: COLO 205 colon
3.05 µM: SN12C renal
0.605 µM: 786-0 renal
3.8 µM: RXF 393 renal
3 µM: HT29 colon
3.63 µM: MALME-3M melanoma
3.11 µM: HOP-62 NSCLC
3.12 µM: MDA-N
3.76 µM: CAKI-1 renal
0.575 µM: HCT-116 colon
1.3 µM: SNB-75 CNS
2.68 µM: UO-31 renal
2.4 µM: KM12 colon
3.69 µM: TK-10 renal
2.42 µM: ACHN renal
3.45 µM: NCI/ADR-RES ovarian
4.01 µM: SF-539 CNS
2.04 µM: PC-3 prostate
3.6 µM: SK-MEL-5 melanoma
> 100 µM: T-47D breast | HS 578T breast
3.31 µM: SK-OV-3 ovarian | SF-268 CNS
3.09 µM: A549 NSCLC
1.41 µM: UACC-257 melanoma
2.69 µM: NCI-H23 lung | OVCAR-5 ovarian
3.38 µM: SK-MEL-28 melanoma
2.33 µM: MDA-MB-435
1.46 µM: SW-620 colon
0.954 µM: OVCAR-4 ovarian

OC(Cc1cnnc2ccccc12)C(Cl)(Cl)Cl (centres undefined)
not listed: OVCAR-5 ovarian | BT-549 breast
> 10 µM: all other assays above

CN(C)C12C=CC=CC3=C(c4ccccc4)C(c4ccccc4)=C(c4ccccc4)C31c1ccccc1C2 (centres undefined)
not listed: A498 renal | NCI-H23 lung | UACC-62 melanoma | CAKI-1 renal | MALME-3M melanoma | RXF 393 renal | SK-MEL-2 melanoma | HOP-92 NSCLC | DU-145 prostate | NCI-H226 lung | LOX IMVI melanoma | OVCAR-3 ovarian | BT-549 breast
> 100 µM: all other assays above

CCOc1cc(CC[N+](C)(C)C)c2c(ccc3ccc(OC)c(OC)c32)c1OC
not listed: A498 renal | SF-539 CNS | NCI-H23 lung | UACC-257 melanoma | HOP-62 NSCLC | KM12 colon | OVCAR-4 ovarian | TK-10 renal | RXF 393 renal | SK-MEL-2 melanoma | OVCAR-5 ovarian | CCRF-CEM leukemia | HS 578T breast | HL-60(TB) leukemia | MOLT-4 leukemia | NCI-H460 lung | MCF7 breast | NCI-H226 lung | HCT-15 colon | LOX IMVI melanoma | K-562 leukemia
> 100 µM: all other assays above
